According to patent publication US20220133842A1 (priority 2019, published 2022):
Where two headings read alike, the source gives them in different places.

Key:
[1] = tested on: Caco-2 cells
[2] = tested on: T84 cells
[3] = tested on: IPEC-J2 cells
[4] = tested on: human or porcine epithelial cells

Compound | Apical fraction [1] | Basal fraction [1] | Intracellular fraction [1] | Apical fraction [2] | Basal fraction [2] | Intracellular fraction [2] | Apical fraction [3] | Basal fraction [3] | Intracellular fraction [3] | intracellular accumulation [4] | Apical fraction ([1]; human) | Basal fraction ([1]; human) | Intracellular fraction ([1]; human) | Apical fraction ([2]; human) | Basal fraction ([2]; human) | Intracellular fraction ([2]; human) | Apical fraction ([3]; pig) | Basal fraction ([3]; pig) | Intracellular fraction ([3]; pig)
CO/C1=C\C(C)=C\[C@@H](C)[C@@H](O)[C@@H](C)C/C(C)=C/C=C/[C@H](OC)[C@@H]([C@@H](C)[C@@H](O)[C@H](C)[C@@]2(O)C[C@@H](O)[C@H](C)[C@@H](C(C)C)O2)OC1=O [Bafilomycin A1] | 0.1% | 22.5% | 77.4% | 2.5% | 30.5% | 68.0% | 0.1% | 28.1% | 71.8% | 19.5-77.4 % of the initial dose | – | – | – | – | – | – | – | – | –
Cc1ncc([N+](=O)[O-])n1CCO [Metronidazole] | – | – | – | – | – | – | – | – | – | – | 80.2% | 12.9% | 12.7% | 71.3% | 9.7% | 19.0% | 84.0% | 7.1% | 8.9%
